Earlier results in US9371263B2, “Protective effects of curcumin against hemorrhagic stroke injury” (Augusta University Research Institute, Inc., priority 2013, dated 2016).

Settings: humans, oral administration

systemic bioavailability: relatively low
SMILES: COc1cc(/C=C/C(=O)CC(=O)/C=C/c2ccc(O)c(OC)c2)ccc1O [curcumin, diferuloylmethane]
